Where a SMILES comes first, the peptide text is derived from it. [ ]: non-standard residue; d: D form. pGlu = O=C1CC[C@@H](C(=O)O)N1; Thz = O=C(O)[C@@H]1CSCN1

Series [1] in a line: The drug is tested on WLS-007 corresponding to human gut metagenome with ENA study accession number: PRJEB37062 and ENA sample accession number: ERS12561742 for biotransformation under anaerobic condition. The drug concentrations were measured over 9 timepoints collected between 0 and 24 hours of incubation by liquid-chromatography-coupled mass spectrometry (LC–MS). The note with it: 2 µM.

The conditions of series [2]: human gut metagenome, 24 h, 2 µM.
Series [3] in a line: The drug is tested on WLS-090 corresponding to human gut metagenome with ENA study accession number: PRJEB37062 and ENA sample accession number: ERS12561753 for biotransformation under anaerobic condition. The drug concentrations were measured over 9 timepoints collected between 0 and 24 hours of incubation by liquid-chromatography-coupled mass spectrometry (LC–MS). The note with it: 2 µM.

Series [4] in a line: The drug is tested on Z-025 corresponding to rabbit gut metagenome with ENA study accession number: PRJEB37062 and ENA sample accession number: ERS12561824 for biotransformation under anaerobic condition. The drug concentrations were measured over 9 timepoints collected between 0 and 24 hours of incubation by liquid-chromatography-coupled mass spectrometry (LC–MS). The note with it: 2 µM.

Series [5] is described as follows: The drug is tested on Z-008 corresponding to metagenome with ENA study accession number: PRJEB37062 and ENA sample accession number: ERS12561808 for biotransformation under anaerobic condition. The drug concentrations were measured over 9 timepoints collected between 0 and 24 hours of incubation by liquid-chromatography-coupled mass spectrometry (LC–MS). As to conditions: 2 µM.

Series [6] can be described thus: The drug is tested on WLS-069 corresponding to human gut metagenome with ENA study accession number: PRJEB37062 and ENA sample accession number: ERS12561748 for biotransformation under anaerobic condition. The drug concentrations were measured over 9 timepoints collected between 0 and 24 hours of incubation by liquid-chromatography-coupled mass spectrometry (LC–MS). The note with it: 2 µM.

For series [7] the following is noted: human gut metagenome, 24 h, 2 µM. The source holds these as a separate data set.
Series [8] is described as follows: The drug is tested on WLS-010 corresponding to human gut metagenome with ENA study accession number: PRJEB37062 and ENA sample accession number: ERS12561743 for biotransformation under anaerobic condition. The drug concentrations were measured over 9 timepoints collected between 0 and 24 hours of incubation by liquid-chromatography-coupled mass spectrometry (LC–MS). As to conditions: 2 µM.

The conditions of series [9]: human gut metagenome, 24 h, 2 µM. This is another data set of the same source.
For series [10] the following is noted: human gut metagenome, 24 h, 2 µM. This is another data set of the same source.
The nature of series [11]: The drug is tested on WLS-027 corresponding to human gut metagenome with ENA study accession number: PRJEB37062 and ENA sample accession number: ERS12561744 for biotransformation under anaerobic condition. The drug concentrations were measured over 9 timepoints collected between 0 and 24 hours of incubation by liquid-chromatography-coupled mass spectrometry (LC–MS). As to conditions: 2 µM.

A short description of series [12]: The drug is tested on Z-014 corresponding to rat gut metagenome with ENA study accession number: PRJEB37062 and ENA sample accession number: ERS12561814 for biotransformation under anaerobic condition. The drug concentrations were measured over 9 timepoints collected between 0 and 24 hours of incubation by liquid-chromatography-coupled mass spectrometry (LC–MS). The note with it: 2 µM.

For series [13] the following is noted: human gut metagenome, 24 h, 2 µM. This is another data set of the same source.
For series [14] the following is noted: human gut metagenome, 24 h, 2 µM. The source holds these as a separate data set.
For series [15] the following is noted: human gut metagenome, 24 h, 2 µM. This is another data set of the same source.
A short description of series [16]: The drug is tested on WLS-370 corresponding to human gut metagenome with ENA study accession number: PRJEB37062 and ENA sample accession number: ERS12561793 for biotransformation under anaerobic condition. The drug concentrations were measured over 9 timepoints collected between 0 and 24 hours of incubation by liquid-chromatography-coupled mass spectrometry (LC–MS). As to conditions: 2 µM.

Series [17] can be described thus: The drug is tested on Z-013 corresponding to rabbit gut metagenome with ENA study accession number: PRJEB37062 and ENA sample accession number: ERS12561813 for biotransformation under anaerobic condition. The drug concentrations were measured over 9 timepoints collected between 0 and 24 hours of incubation by liquid-chromatography-coupled mass spectrometry (LC–MS). The note with it: 2 µM.

For series [18] the following is noted: human gut metagenome, 24 h, 2 µM. This is another data set of the same source.
Series [19] is described as follows: The drug is tested on Z-030 corresponding to mouse gut metagenome with ENA study accession number: PRJEB37062 and ENA sample accession number: ERS12561829 for biotransformation under anaerobic condition. The drug concentrations were measured over 9 timepoints collected between 0 and 24 hours of incubation by liquid-chromatography-coupled mass spectrometry (LC–MS). The note with it: 2 µM.

A short description of series [20]: The drug is tested on WLS-082 corresponding to human gut metagenome with ENA study accession number: PRJEB37062 and ENA sample accession number: ERS12561751 for biotransformation under anaerobic condition. The drug concentrations were measured over 9 timepoints collected between 0 and 24 hours of incubation by liquid-chromatography-coupled mass spectrometry (LC–MS). The note with it: 2 µM.
Also: call rule not given here.

As for `CC(O)(CS(=O)(=O)c1ccc(F)cc1)C(=O)Nc1ccc(C#N)c(C(F)(F)F)c1` (configuration not stated) [BICALUTAMIDE], the “Bacterial Biotransformation” value in [1], in series [2], in series [3], in series [4], in [5] and in series [6] was “Compound NOT metabolized” each time. Moreover, the “Bacterial Biotransformation” value in series [7], in series [8], in [9], in [10], in series [11] and in series [12] was “Compound NOT metabolized” in each case. The “Bacterial Biotransformation” value in series [13], in series [14], in series [15], in series [16], in series [17] and in series [18] was “Compound NOT metabolized” throughout. For the same compound, in [19], the “Bacterial Biotransformation” value is recorded as “Compound NOT metabolized”.
For the compound `CCCC1O[C@@H]2C[C@H]3[C@@H]4CCC5=CC(=O)C=C[C@]5(C)[C@H]4[C@@H](O)C[C@]3(C)[C@]2(C(=O)CO)O1` (some centres not stated) [BUDESONIDE], the “Bacterial Biotransformation” value was “Compound metabolized” in [1]; “Compound metabolized” in series [2]; “Compound metabolized” in series [3]; “Compound NOT metabolized” in series [4]; “Compound metabolized” in series [5]; “Compound metabolized” in series [6]. The “Bacterial Biotransformation” value in series [7], in series [8], in series [9], in series [10], in [11] and in [12] was “Compound metabolized” throughout. The “Bacterial Biotransformation” value in series [13], in [14], in series [15], in [16], in [17] and in [18] was “Compound metabolized” throughout. In series [19], the “Bacterial Biotransformation” value is given as “Compound NOT metabolized”.
For the compound `CCCCCCOC(=O)/N=C(/N)c1ccc(NCc2nc3cc(C(=O)N(CCC(=O)OCC)c4ccccn4)ccc3n2C)cc1.CS(=O)(=O)O` [DABIGATRAN ETEXILATE MESYLATE], the “Bacterial Biotransformation” value in series [2], in [4], in series [5], in series [12], in series [16] and in series [17] was “Compound NOT metabolized” in each case. The “Bacterial Biotransformation” value in [18] and in [19] was “Compound NOT metabolized” each time.
For `C[C@@H]1C[C@H]2[C@@H]3CCC4=CC(=O)C=C[C@]4(C)[C@@]3(F)[C@@H](O)C[C@]2(C)[C@@]1(O)C(=O)CO` [DEXAMETHASONE], the “Bacterial Biotransformation” value in series [1], in series [2], in series [4], in [5], in series [6] and in series [7] was “Compound NOT metabolized” each time. The “Bacterial Biotransformation” value in series [8] is “Compound metabolized”; in [9] it was “Compound NOT metabolized”; in series [10] it was “Compound NOT metabolized”; in series [11], “Compound NOT metabolized”; in series [12] it was “Compound NOT metabolized”; in [13] it was “Compound NOT metabolized”. In addition, the “Bacterial Biotransformation” value in [14], in series [15], in [17], in [18] and in series [19] was “Compound NOT metabolized” each time.
Turning to `c1ccc([C@H]2CN3CCSC3=N2)cc1` [LEVAMISOLE], the “Bacterial Biotransformation” value in [1] is recorded as “Compound metabolized”; in series [2], “Compound metabolized”; in series [4] it was “Compound NOT metabolized”; in [6], “Compound metabolized”; in [7], “Compound metabolized”; in series [9], “Compound metabolized”. The “Bacterial Biotransformation” value is reported as “Compound metabolized” in series [10]; “Compound metabolized” in [11]; “Compound NOT metabolized” in series [12]; “Compound metabolized” in series [13]; “Compound metabolized” in series [14]; “Compound metabolized” in [15]. Further, the “Bacterial Biotransformation” value is reported as “Compound metabolized” in series [16], “Compound NOT metabolized” in series [17], “Compound metabolized” in [18] and “Compound NOT metabolized” in series [19].
With `C#C[C@]1(O)CC[C@H]2[C@@H]3CCC4=CC(=O)CC[C@@H]4[C@H]3CC[C@@]21CC` [LEVONORGESTREL], the “Bacterial Biotransformation” value in [1], in series [3], in series [4], in series [6], in series [7] and in series [9] was “Compound metabolized” in each case. Moreover, the “Bacterial Biotransformation” value in [20] is recorded as “Compound metabolized”; in series [10] it was “Compound NOT metabolized”; in [11], “Compound metabolized”; in series [12] it was “Compound metabolized”; in series [13] it was “Compound metabolized”; in [14], “Compound metabolized”. Moreover, the “Bacterial Biotransformation” value in [15] is reported as “Compound metabolized”; in series [16] it was “Compound metabolized”; in [17] it was “Compound metabolized”; in series [18] it was “Compound metabolized”; in [19], “Compound NOT metabolized”.
As for `O=C1CC[C@@H](C(=O)N2CSC[C@H]2C(=O)O)N1` [PIDOTIMOD] ([pGlu]-[Thz]-OH), the “Bacterial Biotransformation” value in series [2], in series [3], in series [4], in [7], in [8] and in [9] was “Compound NOT metabolized” throughout. Also, the “Bacterial Biotransformation” value in series [20] is “Compound NOT metabolized”; in [10], “Compound NOT metabolized”; in series [11], “Compound NOT metabolized”; in series [12], “Compound NOT metabolized”; in [13] it was “Compound metabolized”; in series [14], “Compound NOT metabolized”. The “Bacterial Biotransformation” value in [16], in [17], in series [18] and in [19] was “Compound NOT metabolized” in each case.

The values above are taken from ChEMBL document CHEMBL5724914, “Linking interpersonal differences in gut microbiota composition and drug biotransformation activity” (2024).
